Drawing on ChEMBL document CHEMBL6083242, “Design and optimization of novel Tetrahydro-β-carboline-based HDAC inhibitors with potent activities against tumor cell growth and metastasis” (Bioorg Med Chem Lett, 2024), this text covers Activity and IC50 for 5 compounds.

Calls of active or inactive are those of the source. No cut-off for these calls is given here.

The subject of assay [1] is A549. The experiment in a line: Induction of apoptosis in human A549 cells at 5 uM incubated for 72 hrs by Annexin V/PI staining based flow cytometry analysis relative to control. The assay is classed as functional. In general terms: In flow cytometry, cells or beads pass a laser one at a time.
Assay [2] concerns A549. Put plainly: Antiproliferative activity against human A549 cells assessed as inhibition of cell proliferation.
The next assay deals with HeLa. Put plainly: Antiproliferative activity against human HeLa cells assessed as inhibition of cell proliferation.
The next assay relates to MCF7. Put plainly: Antiproliferative activity against human MCF7 cells assessed as inhibition of cell proliferation.
Another assay deals with MDA-MB-231. The experiment in a line: Antiproliferative activity against human MDA-MB-231 cells assessed as inhibition of cell proliferation.
The test system of assay [3] is A549. The experiment in a line: Antimetastatic activity in human A549 cells assessed as reduction in cell migration incubated for 24 hrs by wound healing assay. The assay is classed as functional, cell-based. To be noted: dose 0.5-5 µM.
The subject of assay [4] is A549. The experiment in a line: Induction of cell cycle arrest in human A549 cells assessed as accumulation of cells at G2/M phase incubated for 24 hrs by flow cytometry analysis. Type of assay: functional, cell-based. Conditions: dose 0.5-5 µM.
The subject of assay [5] is A549. The experiment in a line: Induction of cell cycle arrest in human A549 cells assessed as accumulation of cells in G2/M phase by measuring CDK1 level incubated for 24 hrs by Western blotting analysis. To be noted: dose 0.5-5 µM. The assay is classed as functional, cell-based. For orientation: In western blotting, separated proteins are transferred to a membrane and probed.

Assay [6] deals with A549. The experiment in a line: Induction of cell cycle arrest in human A549 cells assessed as accumulation of cells in G2/M phase by measuring cyclin B1 level incubated for 24 hrs by Western blotting analysis. Type of assay: functional, cell-based. To be noted: dose 0.5-5 µM.
The subject of assay [7] is A549. The experiment in a line: Induction of apoptosis in human A549 cells incubated for 72 hrs by Annexin V/PI staining based flow cytometry analysis. Type of assay: functional, cell-based. To be noted: dose 0.5-5 µM.
Assay [8] deals with A549. Put plainly: Induction of apoptosis in human A549 cells at 0.5 to 5 uM incubated for 72 hrs by Annexin V/PI staining based flow cytometry analysis (reference value: 17.35%). Type of assay: functional. To be noted: dose 0.5-5 µM.
The test system of assay [9] is A549. Put plainly: Induction of apoptosis in human A549 cells assessed as downregulation of Bcl-2 expression incubated for 24 hrs by Western blot analysis. Type of assay: functional, cell-based. Conditions: dose 0.5-5 µM.
The subject of assay [10] is A549. The experiment in a line: Induction of apoptosis in human A549 cells assessed as upregulation of Bax expression incubated for 24 hrs by Western blot analysis. Conditions: dose 0.5-5 µM. The assay is classed as functional, cell-based.
Assay [11] relates to A549. Put plainly: Induction of apoptosis in human A549 cells assessed as upregulation of PARP expression incubated for 24 hrs by Western blot analysis. Type of assay: functional, cell-based. To be noted: dose 0.5-5 µM.
Assay [12] relates to A549. The experiment in a line: Induction of apoptosis in human A549 cells assessed as upregulation of cleaved caspase 3 expression incubated for 24 hrs by Western blot analysis. The assay is classed as functional, cell-based. To be noted: dose 0.5-5 µM.
The subject of assay [13] is A549. Put plainly: Induction of apoptosis in human A549 cells assessed as increase in ROS level incubated for 24 hrs by DCFH-DA staining based fluorescence analysis. Type of assay: functional, cell-based. Conditions: dose 0.5-5 µM.
Assay [14] concerns A549. Put plainly: Induction of apoptosis in human A549 cells assessed as induction of gammaH2AX expression at 0.5 uM incubated for 24 hrs by immunofluorescence analysis. The assay is classed as functional, cell-based.
Assay [15] has as its system A549. Put plainly: Induction of apoptosis in human A549 cells assessed as gammaH2AX foci formation incubated for 24 hrs by immunofluorescence analysis. Type of assay: functional, cell-based. To be noted: dose 0.5-5 µM.

The compound `O=C(CCCCCCC(=O)Nc1ccccc1)NO` [VORINOSTAT] showed an Activity with A549 [1] of 34.83%.
As a reminder, the IC50 is the midpoint of a concentration-inhibition curve. Consider `O=C(CCCCCCC(=O)N1CCc2c([nH]c3ccccc23)C1)NO`, for which the half-maximal inhibitory concentration (IC50) came out at 2290 nM in the assay with A549 [2], 430 nM in the assay on HeLa, 1840 nM in the assay on MCF7 and 196000 nM in the assay with MDA-MB-231.
The corresponding values for `CC(C)Cn1c2c(c3ccccc31)CCN(C(=O)CCCCCCC(=O)NO)C2` are 4150 nM, 6050 nM, 3040 nM and 1690 nM.
For `O=C(CCCCCCC(=O)N1CCc2c(n(CC3CC3)c3ccccc23)C1)NO`, the IC50 with A549 [2] was found to be 2690 nM; in the assay on HeLa, 184000 nM; in the assay with MCF7, 1210 nM; in the assay on MDA-MB-231, 2100 nM.
In the case of `CC(=O)N1CCc2c(n(CCCCCCC(=O)NO)c3ccccc23)C1`, the IC50 in the assay with A549 [2] is 1090 nM; with HeLa, 6090 nM; in the assay with MCF7, 5670 nM; with MDA-MB-231 it was 6740 nM. Also, the Activity result in the assay with A549 [3] is “Dose-dependent-effect”; in the assay on A549 [4], “Dose-dependent-effect”; in the assay with A549 [5] it was “Dose-dependent-effect”; in the assay on A549 [6], “Dose-dependent-effect”; with A549 [7], “Dose-dependent-effect”; with A549 [8], 24.17%. For the same compound, the Activity in the assay on A549 [1] is 43.95%; in the assay with A549 [9] it was “Dose-dependent-effect”; in the assay with A549 [10], “Dose-dependent-effect”; with A549 [11], “Dose-dependent-effect”; in the assay on A549 [12], “Dose-dependent-effect”; in the assay with A549 [13], “Dose-dependent-effect”. For the same compound, the Activity result in the assay with A549 [15] was “Dose-dependent-effect”. Also, the outcome in the assay on A549 [14] was Active.
